Laboratory results: ChEMBL document CHEMBL1201862, “PubChem BioAssay data set” (2004)
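Compound exposure: 48 hours, 5 concentrations, 96-well plates. Abbreviation: GI50, concentration required for 50% inhibition of growth.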 Calls of active or inactive are those of the source. Cut-off read from the data, not from the text of the source: active = GI50 up to about 1.1 µM and inactive = higher.

Legend:
Test in all cases: NCI tumour cell line growth inhibition, 48 h
CAKI-1 = test system: CAKI-1
COLO 205 = test system: COLO 205
HCC 2998 = test system: HCC 2998
HCT-15 = test system: HCT-15
HL-60 = test system: HL-60
IGROV-1 = test system: IGROV-1
MCF7 = test system: MCF7
MDA-MB-231 = test system: MDA-MB-231
MDA-MB-435 = test system: MDA-MB-435
NCI-H226 = test system: NCI-H226
NCI-H460 = test system: NCI-H460
NCI-H522 = test system: NCI-H522
OVCAR-3 = test system: OVCAR-3
OVCAR-5 = test system: OVCAR-5
RXF 393 = test system: RXF 393
SF-295 = test system: SF-295
SNB-19 = test system: SNB-19
SNB-75 = test system: SNB-75
U-251 = test system: U-251
MDA-N = test system: MDA-N

COC(=O)c1c[nH]c2c1-c1cc(C(=O)OCc3ccccc3)n(S(=O)(=O)c3ccc(C)cc3)c1C(=O)C2=O
GI50 (CAKI-1): 1.31 µM (inactive)
GI50 (COLO 205): 0.805 µM (active)
GI50 (HCC 2998): 0.578 µM (active)
GI50 (HCT-15): 0.194 µM
GI50 (HL-60): 0.144 µM (active)
GI50 (IGROV-1): 0.372 µM (active)
GI50 (MCF7): 0.184 µM (active)
GI50 (MDA-MB-231): 0.0481 µM (active)
GI50 (MDA-MB-435): 0.0318 µM (active)
GI50 (NCI-H226): 0.729 µM (active)
GI50 (NCI-H460): 1.24 µM (inactive)
GI50 (NCI-H522): 0.207 µM (active)
GI50 (OVCAR-3): 0.0316 µM (active)
GI50 (OVCAR-5): 1.56 µM (inactive)
GI50 (RXF 393): 0.214 µM (active)
GI50 (SF-295): 0.17 µM (active)
GI50 (SNB-19): 0.193 µM (active)
GI50 (SNB-75): 0.189 µM (active)
GI50 (U-251): 0.317 µM (active)

C#CCCCC(=C)C[C@@H]1OC(=O)[C@H](C)[C@@H]1O
GI50 (CAKI-1): > 100 µM (inactive)
GI50 (COLO 205): > 100 µM (inactive)
GI50 (HCC 2998): > 100 µM (inactive)
GI50 (HCT-15): > 100 µM
GI50 (HL-60): > 100 µM (inactive)
GI50 (MCF7): > 100 µM (inactive)
GI50 (MDA-MB-435): > 100 µM (inactive)
GI50 (MDA-N): > 100 µM (inactive)
GI50 (NCI-H460): > 100 µM (inactive)
GI50 (OVCAR-3): > 100 µM (inactive)
GI50 (OVCAR-5): > 100 µM (inactive)
GI50 (RXF 393): > 100 µM (inactive)
GI50 (SF-295): > 100 µM (inactive)
GI50 (SNB-19): > 100 µM (inactive)
GI50 (SNB-75): > 100 µM (inactive)
GI50 (U-251): > 100 µM (inactive)

C/C=C1\CN(C(=O)OC(C)(C)C)C1C(=O)OC(C)(C)C (centres undefined)
GI50 (CAKI-1): > 100 µM (inactive)
GI50 (COLO 205): > 100 µM (inactive)
GI50 (HCC 2998): > 100 µM (inactive)
GI50 (HCT-15): > 100 µM
GI50 (HL-60): 21.3 µM (inactive)
GI50 (IGROV-1): > 100 µM (inactive)
GI50 (MCF7): > 100 µM (inactive)
GI50 (MDA-MB-435): > 100 µM (inactive)
GI50 (MDA-N): > 100 µM (inactive)
GI50 (NCI-H460): > 100 µM (inactive)
GI50 (OVCAR-3): 94 µM (inactive)
GI50 (OVCAR-5): > 100 µM (inactive)
GI50 (SF-295): > 100 µM (inactive)
GI50 (SNB-19): > 100 µM (inactive)

Nc1nc2c(ncn2C2OC(CO)C(O)C2O)c(=O)o1 (centres undefined)
GI50 (CAKI-1): > 100 µM (inactive)
GI50 (COLO 205): > 42 µM (inactive)
GI50 (HCC 2998): 5.82 µM (inactive)
GI50 (HCT-15): 42.9 µM
GI50 (HL-60): > 45.1 µM (inactive)
GI50 (IGROV-1): > 100 µM (inactive)
GI50 (NCI-H226): > 100 µM (inactive)
GI50 (NCI-H460): > 100 µM (inactive)
GI50 (NCI-H522): 18.6 µM (inactive)
GI50 (OVCAR-3): > 100 µM (inactive)
GI50 (OVCAR-5): > 100 µM (inactive)
GI50 (RXF 393): > 100 µM (inactive)
GI50 (SF-295): > 100 µM (inactive)
GI50 (SNB-19): > 100 µM (inactive)
GI50 (SNB-75): > 100 µM (inactive)
GI50 (U-251): > 100 µM (inactive)

O=C1/C(=C\c2ccc(F)cc2)CCOc2c1ccc1ccccc21
GI50 (CAKI-1): 21.1 µM (inactive)
GI50 (COLO 205): 19 µM (inactive)
GI50 (HCC 2998): 3.48 µM (inactive)
GI50 (HCT-15): 11.2 µM
GI50 (HL-60): 14.9 µM (inactive)
GI50 (MCF7): 10.4 µM (inactive)
GI50 (MDA-MB-231): 14.8 µM (inactive)
GI50 (MDA-MB-435): 26.8 µM (inactive)
GI50 (NCI-H460): 25.1 µM (inactive)
GI50 (NCI-H522): 34 µM (inactive)
GI50 (OVCAR-3): 8.15 µM (inactive)
GI50 (OVCAR-5): 18.5 µM (inactive)
GI50 (RXF 393): 13.4 µM (inactive)
GI50 (SF-295): 22 µM (inactive)
GI50 (SNB-19): 17.7 µM (inactive)
GI50 (SNB-75): 12.4 µM (inactive)
GI50 (U-251): 10.6 µM (inactive)

O=C(CSCC(=O)N/N=C/c1cccs1)N/N=C/c1cccs1
GI50 (CAKI-1): 46.6 µM (inactive)
GI50 (HCC 2998): > 100 µM (inactive)
GI50 (HCT-15): > 100 µM
GI50 (HL-60): > 100 µM (inactive)
GI50 (IGROV-1): 66.7 µM (inactive)
GI50 (MCF7): > 100 µM (inactive)
GI50 (MDA-MB-231): 75.9 µM (inactive)
GI50 (MDA-MB-435): > 100 µM (inactive)
GI50 (NCI-H226): 37.2 µM (inactive)
GI50 (NCI-H460): > 100 µM (inactive)
GI50 (NCI-H522): 38.6 µM (inactive)
GI50 (OVCAR-3): 38.6 µM (inactive)
GI50 (OVCAR-5): > 100 µM (inactive)
GI50 (RXF 393): 74.3 µM (inactive)
GI50 (SF-295): 52.7 µM (inactive)
GI50 (SNB-19): 56.1 µM (inactive)
GI50 (SNB-75): > 100 µM (inactive)
GI50 (U-251): > 100 µM (inactive)

C=C(CO)CC(O)c1cc(OC)ccc1OC (centres undefined)
GI50 (CAKI-1): > 100 µM (inactive)
GI50 (COLO 205): > 100 µM (inactive)
GI50 (HCC 2998): > 100 µM (inactive)
GI50 (HCT-15): > 100 µM
GI50 (HL-60): > 100 µM (inactive)
GI50 (IGROV-1): > 100 µM (inactive)
GI50 (NCI-H226): > 100 µM (inactive)
GI50 (NCI-H460): > 100 µM (inactive)
GI50 (NCI-H522): > 100 µM (inactive)
GI50 (OVCAR-3): > 100 µM (inactive)
GI50 (OVCAR-5): > 100 µM (inactive)
GI50 (RXF 393): > 100 µM (inactive)
GI50 (SF-295): > 100 µM (inactive)
GI50 (SNB-19): > 100 µM (inactive)
GI50 (SNB-75): > 100 µM (inactive)
GI50 (U-251): > 100 µM (inactive)

O=Cc1ccc(-c2ccc(-c3ccc(CO)s3)o2)s1
GI50 (CAKI-1): 0.186 µM (active)
GI50 (COLO 205): 12.9 µM (inactive)
GI50 (HCC 2998): 3.22 µM (inactive)
GI50 (HCT-15): 24.4 µM
GI50 (HL-60): 3.85 µM (inactive)
GI50 (IGROV-1): 0.547 µM (active)
GI50 (MCF7): 0.348 µM (active)
GI50 (MDA-MB-231): 22 µM (inactive)
GI50 (MDA-MB-435): 8.32 µM (inactive)
GI50 (NCI-H226): 0.0681 µM (active)
GI50 (NCI-H460): 0.101 µM (active)
GI50 (NCI-H522): 15.7 µM (inactive)
GI50 (OVCAR-3): 0.372 µM (active)
GI50 (RXF 393): 5.74 µM (inactive)
GI50 (SF-295): 14.5 µM (inactive)
GI50 (SNB-19): 32 µM (inactive)
GI50 (SNB-75): 20.2 µM (inactive)
GI50 (U-251): 1.91 µM (inactive)
